These results are taken from ChEMBL document CHEMBL2163249, “Exploration of natural compounds as sources of new bifunctional scaffolds targeting cholinesterases and beta amyloid aggregation: the case of chelerythrine” (Bioorg Med Chem, 2012).

The target of experiment [1] is Acetylcholinesterase (Electrophorus electricus) (UniProt O42275). To be noted: at 2 mg/mL.
Description: Inhibition of electric eel AChE at 2 mg/ml by Ellman's method
For experiment [2], the target named is Cholinesterase (Equus caballus) (UniProt P81908). The following applies: at 2 mg/mL.
Description: Inhibition of horse BChE at 2 mg/ml by Ellman's method

Starred links: 1 amine or outer side, 2 acyl side, 3 side chain; linkers in the order of their positions; H or OH if unused. Positions of bridges follow the written chain, without caps; N, C: chain ends. Non-standard residues stand in square brackets, D forms with d. Residues, ends and D or L forms follow the SMILES beside them. Chains are numbered I, II in the order given. Actinocin(9to1) = Cc1c2oc3c(C)ccc(C(=O)[*:1])c3nc-2c(C(=O)[*:2])c(N)c1=O; NMeV = CN[C@H](C(=O)O)C(C)C; Sar = CNCC(=O)O

Chain of Acetylcholinesterase (Electrophorus electricus) (O42275 24-633 limits assumed): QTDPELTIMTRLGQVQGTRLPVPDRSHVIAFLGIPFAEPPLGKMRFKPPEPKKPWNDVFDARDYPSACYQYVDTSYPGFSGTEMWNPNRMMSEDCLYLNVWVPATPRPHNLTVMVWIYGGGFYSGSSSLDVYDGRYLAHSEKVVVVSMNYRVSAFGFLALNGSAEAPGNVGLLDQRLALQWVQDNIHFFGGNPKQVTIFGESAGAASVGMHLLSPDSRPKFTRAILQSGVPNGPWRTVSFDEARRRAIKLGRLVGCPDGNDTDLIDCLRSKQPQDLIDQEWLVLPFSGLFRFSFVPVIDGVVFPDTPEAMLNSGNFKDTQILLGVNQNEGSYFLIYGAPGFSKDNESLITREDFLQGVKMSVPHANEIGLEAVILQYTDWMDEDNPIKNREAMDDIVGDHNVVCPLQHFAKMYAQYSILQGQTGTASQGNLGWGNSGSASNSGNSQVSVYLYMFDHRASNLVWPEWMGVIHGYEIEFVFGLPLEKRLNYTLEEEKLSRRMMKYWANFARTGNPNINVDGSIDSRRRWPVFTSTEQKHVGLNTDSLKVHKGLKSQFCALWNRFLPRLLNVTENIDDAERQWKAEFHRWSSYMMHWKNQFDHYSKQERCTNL
Chain of Cholinesterase (Equus caballus) (P81908 whole entry): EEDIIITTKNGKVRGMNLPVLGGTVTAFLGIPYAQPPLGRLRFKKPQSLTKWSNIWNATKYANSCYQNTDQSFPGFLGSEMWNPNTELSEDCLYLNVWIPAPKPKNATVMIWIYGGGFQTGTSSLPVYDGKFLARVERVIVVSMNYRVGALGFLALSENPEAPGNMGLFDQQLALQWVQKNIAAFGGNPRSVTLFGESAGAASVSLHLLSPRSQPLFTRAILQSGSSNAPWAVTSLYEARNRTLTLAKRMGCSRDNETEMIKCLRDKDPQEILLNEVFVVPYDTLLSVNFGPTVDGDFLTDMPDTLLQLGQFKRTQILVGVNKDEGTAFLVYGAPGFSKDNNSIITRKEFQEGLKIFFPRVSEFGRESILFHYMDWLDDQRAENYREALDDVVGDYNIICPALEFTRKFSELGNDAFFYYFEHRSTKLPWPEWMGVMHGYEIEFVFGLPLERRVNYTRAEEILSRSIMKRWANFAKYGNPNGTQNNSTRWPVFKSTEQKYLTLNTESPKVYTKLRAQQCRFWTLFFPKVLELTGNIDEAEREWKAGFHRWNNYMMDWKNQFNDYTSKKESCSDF

As usually defined, the inhibition is the drop in the measured response relative to a control, in per cent. On to `N#C[C@H](O[C@@H]1O[C@H](CO[C@@H]2O[C@H](CO)[C@@H](O)[C@H](O)[C@H]2O)[C@@H](O)[C@H](O)[C@H]1O)c1ccccc1`, for which the inhibition was found to be 0.78% in experiment [1] and 5.7% in experiment [2].
In the same order, the values of `C1CCN2C[C@@H]3C[C@@H](CN4CCCC[C@@H]34)[C@H]2C1` are 4.72% and 5.31%.
The like results for `CC(=O)O[C@H]1CC[C@]2(C=O)[C@H]3CC[C@]4(C)[C@@H](C5=CC(=O)OC5)CC[C@]4(O)[C@@H]3CC[C@]2(O)C1` were, in that order, -2.93% and -2.95%.
The like results for `CN1[C@H]2CC(=O)C[C@@H]1C(O)C2` (stereo partly drawn) were, in that order, -7.3% and -3.92%.
Consider `COc1ccc(-c2coc3cc(O)ccc3c2=O)cc1`, for which the results for the inhibition in experiment [1] and in experiment [2] were 1.62% and 0.57%, respectively.
In the same order, the values of `CN1CCc2cc(O)c(O)cc2C1Cc1ccc(O)c(O)c1` (stereo not drawn) are 28.1% and 24.1%.
The like results for `Cc1nccc2c1[nH]c1cc(O)ccc12` were, in that order, 46.1% and 35.9%.
The like results for `COc1cc(C(=O)O[C@H]2C[C@@H]3CC[C@]2(C)C3(C)C)ccc1O` were, in that order, 25.2% and 1.44%.
For the compound `COC(=O)C1=CCCN(C)C1`, the inhibition in experiment [1] was 16.9%; in experiment [2] it was 0.29%.
Turning to `O=c1c(O)c(-c2ccc(O)cc2)oc2cc(O)cc(O)c12`, the inhibition worked out at 20% in experiment [1] and 5.23% in experiment [2].
The like results for `CC[C@@]1(O)C(=O)OCc2c1cc1n(c2=O)Cc2cc3cc(O)ccc3nc2-1` were, in that order, -5.24% and 6.63%.
Consider `C=C(C)[C@@H]1CC[C@]2(CO)CC[C@]3(C)[C@H](CC[C@@H]4[C@@]5(C)CC[C@H](O)C(C)(C)[C@@H]5CC[C@]43C)[C@@H]12`, for which the inhibition in experiment [1] worked out at 7.09%; in experiment [2], 0.47%.
The like results for `COc1ccc(/C=C/c2cc(OC)cc(=O)o2)cc1` were, in that order, 7.69% and -1.55%.
In the same order, the values of `CN1CCc2cc(O)c(O)cc2C1Cc1cc(O)c(O)cc1Br` (racemic) are 27.2% and 13.4%.
The like results for `CCOC(=O)Oc1c(OC)cc(C(=O)O[C@@H]2C[C@@H]3CN4CCc5c([nH]c6cc(OC)ccc56)[C@H]4C[C@@H]3[C@H](C(=O)OC)[C@H]2OC)cc1OC` were, in that order, -6.1% and -6.04%.
Turning to `COc1ccc2c(c1OC)C(=O)OC2C1c2c(cc3c(c2OC)OCO3)CCN1C` (racemic), the inhibition in experiment [1] was -5.54%; in experiment [2] it was 3.34%.
The like results for `COc1cc(C(=O)OC2CC3CCC(C2)N3C)ccc1O` (stereo not drawn) were, in that order, 31.5% and 6.73%.
The like results for `CCCCCCCCCCCCC/C=C/[C@@H](O)[C@H](CO)NC(=O)CCCCC` were, in that order, 9.07% and 4.36%.
The like results for `CO[C@H]1C=C2CCN(C)[C@H]2[C@@H]2c3cc4c(cc3C(=O)O[C@@H]21)OCO4` were, in that order, 25.8% and -2.26%.
On to `CC(C)=CCC[C@]1(C)C=Cc2c(O)c3c(c(CC=C(C)C)c2O1)O[C@]12C(=C[C@@H]4C[C@H]1C(C)(C)O[C@@]2(C/C=C(/C)C(=O)O)C4=O)C3=O`, for which the inhibition in experiment [1] turned out to be 1.17%; in experiment [2] it was 8.47%.
Consider `Cc1c2oc3c(C)ccc(C(=O)N[C@@H]4C(=O)N[C@H](C(C)C)C(=O)N5CCC[C@H]5C(=O)N(C)CC(=O)N(C)[C@@H](C(C)C)C(=O)O[C@@H]4C)c3nc-2c(C(=O)N[C@@H]2C(=O)N[C@H](C(C)C)C(=O)N3CCC[C@H]3C(=O)N(C)CC(=O)N(C)[C@@H](C(C)C)C(=O)O[C@@H]2C)c(N)c1=O` (I: T[dV]P[Sar][NMeV] / II: T[dV]P[Sar][NMeV]; ester I:1-I:C, II:1-II:C; linker I:N-II:N via Actinocin(9to1)), for which the results for the inhibition in experiment [1] and in experiment [2] were -2.56% and 3.31%, respectively.
As to `C[C@@H]1O[C@@H](O[C@H]2[C@H](Oc3cc(O)c4c(c3)O[C@H](c3ccc(O)cc3)CC4=O)O[C@H](CO)[C@@H](O)[C@@H]2O)[C@H](O)[C@H](O)[C@H]1O`, the inhibition is -3.38% in experiment [1] and -5.49% in experiment [2].
In the same order, the values of `C/C=C(/C)C(=O)O[C@H]1C(C)=C2[C@H]([C@@H]1OC(=O)CCCCCCC)[C@@](C)(OC(C)=O)C[C@H](OC(=O)CCC)[C@@]1(O)[C@H]2OC(=O)[C@@]1(C)O` are 9.89% and 0.82%.
In the same order, the values of `C=C[C@]12CN(C)[C@@H]3[C@H]4CO[C@H](C[C@H]41)[C@]1(C(=O)Nc4ccccc41)[C@@H]32` are 6.89% and 31.1%.
The like results for `COc1cc([C@@H]2c3cc4c(cc3[C@@H](O[C@@H]3O[C@@H]5CO[C@@H](C)O[C@H]5[C@H](O)[C@H]3O)[C@H]3COC(=O)[C@H]23)OCO4)cc(OC)c1O` were, in that order, -9.19% and -5.72%.
On to `CCOC(=O)[C@H]1O[C@@H]1C(=O)N[C@@H](CC(C)C)C(=O)NCCC(C)C`, for which the inhibition in experiment [1] is 1.24%; in experiment [2], -0.73%.
The like results for `CC(C)(O)CC[C@@H](O)[C@](C)(O)[C@H]1CC[C@@]2(O)C3=CC(=O)[C@@H]4C[C@@H](O)[C@@H](O)C[C@]4(C)[C@H]3CC[C@]12C` were, in that order, 3.26% and -3.01%.
Consider `COc1ccc(/C=C/C(=O)c2c(O)cc(OC)cc2OC)cc1`, for which the inhibition in experiment [1] is -6.03%; in experiment [2] it was -9.95%.
The like results for `COc1ccc2c(c1)[nH]c1c(C)nccc12` were, in that order, 50.9% and 12.1%.
The like results for `C=C1C(=O)[C@]23[C@H](CC[C@@H]1[C@@H]2O)[C@]12CO[C@@]3(O)[C@H](O)[C@H]1C(C)(C)CC[C@@H]2O` were, in that order, -3.57% and -8.92%.
The like results for `C=C1C(=O)[C@]23[C@H](O)[C@H]1CC[C@H]2[C@@]12CO[C@]3(O)[C@@H](O)[C@@H]1C(C)(C)CC[C@@H]2O` were, in that order, 24.7% and 0.03%.
As to `O=c1cc(-c2ccccc2)oc2cc(O)c(O)cc12`, the inhibition in experiment [1] was 23.1%; in experiment [2], 1.82%.
The like results for `O=C1C=C2C=C[C@@H]3C[C@@]2(O1)[C@H]1CCCCN31` were, in that order, 7.44% and 6.85%.
In the same order, the values of `COc1cc2c(c(OC)c1OC)-c1ccc(OC)c(=O)cc1[C@@H](NC(C)=O)CC2` are 0.14% and 0.1%.
In the same order, the values of `O=C(O)Cc1c[nH]c2ccccc12` are 2.98% and -7.42%.
As for `CC1=CC(=O)c2c(O)cccc2C1=O`, the inhibition in experiment [1] is 31.8%; in experiment [2] it was 9.94%.
In the same order, the values of `C[C@@H]1O[C@@H](O[C@H]2C(Oc3cc(O)c4c(=O)c(O)c(-c5ccc(O)cc5)oc4c3)O[C@H](CO)[C@@H](O)[C@@H]2O)[C@H](O)[C@H](O)[C@H]1O` (stereo partly drawn) are 24.5% and -4.78%.
In the same order, the values of `CC1(C)CCC[C@](C)([C@H]2CC[C@]3(C)[C@@H]2[C@H](O)C[C@@H]2[C@@]4(C)CC[C@H](O)C(C)(C)[C@@H]4[C@@H](O)C[C@]23C)O1` are 6.16% and 8.34%.
The like results for `C[C@@H]1C/C=C/C=C/C=C/C=C/[C@H](O[C@@H]2O[C@H](C)[C@@H](O)[C@H](N)[C@@H]2O)C[C@@H]2O[C@](O)(C[C@@H](O)C[C@H]3O[C@@H]3/C=C/C(=O)O1)C[C@H](O)[C@H]2C(=O)O` were, in that order, -4.37% and -8.59%.
